Results taken from PubChem BioAssay (NCI).
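Results reflect a 48-hour exposure of cells in 96-well plates to compound at five concentrations. GI50 is the concentration that inhibits growth by half. Definition used: TGI = concentration required for complete inhibition of growth.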

Assays:
Experiment in all cases: NCI-60 cell line screen, 48 h; in the data active = GI50 below about 0.43 µM; inactive = the rest
NCI/ADR-RES ovarian = test system: NCI/ADR-RES ovarian
SN12C renal = test system: SN12C renal
K-562 leukemia = test system: K-562 leukemia
RPMI-8226 leukemia = test system: RPMI-8226 leukemia
HCT-15 colon = test system: HCT-15 colon
MOLT-4 leukemia = test system: MOLT-4 leukemia
IGROV1 ovarian = test system: IGROV1 ovarian
SK-MEL-5 melanoma = test system: SK-MEL-5 melanoma
TK-10 renal = test system: TK-10 renal
M14 melanoma = test system: M14 melanoma
PC-3 prostate = test system: PC-3 prostate
BT-549 breast = test system: BT-549 breast
MDA-MB-231 breast = test system: MDA-MB-231 breast
OVCAR-8 ovarian = test system: OVCAR-8 ovarian
A549 NSCLC = test system: A549 NSCLC
SK-MEL-2 melanoma = test system: SK-MEL-2 melanoma
DU-145 prostate = test system: DU-145 prostate
HT29 colon = test system: HT29 colon
UO-31 renal = test system: UO-31 renal
SK-MEL-28 melanoma = test system: SK-MEL-28 melanoma
SNB-19 CNS = test system: SNB-19 CNS
UACC-257 melanoma = test system: UACC-257 melanoma
OVCAR-5 ovarian = test system: OVCAR-5 ovarian
HCC-2998 colon = test system: HCC-2998 colon
RXF 393 renal = test system: RXF 393 renal
CCRF-CEM leukemia = test system: CCRF-CEM leukemia
SF-268 CNS = test system: SF-268 CNS
SK-OV-3 ovarian = test system: SK-OV-3 ovarian
NCI-H522 lung = test system: NCI-H522 lung
HOP-92 NSCLC = test system: HOP-92 NSCLC
MALME-3M melanoma = test system: MALME-3M melanoma
LOX IMVI melanoma = test system: LOX IMVI melanoma
SW-620 colon = test system: SW-620 colon
MDA-MB-435 = test system: MDA-MB-435
NCI-H226 lung = test system: NCI-H226 lung
HS 578T breast = test system: HS 578T breast
HOP-62 NSCLC = test system: HOP-62 NSCLC
HL-60(TB) leukemia = test system: HL-60(TB) leukemia
EKVX NSCLC = test system: EKVX NSCLC
KM12 colon = test system: KM12 colon
MCF7 breast = test system: MCF7 breast
ACHN renal = test system: ACHN renal
786-0 renal = test system: 786-0 renal
OVCAR-4 ovarian = test system: OVCAR-4 ovarian
U251 CNS = test system: U251 CNS
CAKI-1 renal = test system: CAKI-1 renal
NCI-H460 lung = test system: NCI-H460 lung
SF-539 CNS = test system: SF-539 CNS
UACC-62 melanoma = test system: UACC-62 melanoma
T-47D breast = test system: T-47D breast
HCT-116 colon = test system: HCT-116 colon
OVCAR-3 ovarian = test system: OVCAR-3 ovarian
SR leukemia = test system: SR leukemia
NCI-H23 lung = test system: NCI-H23 lung
COLO 205 colon = test system: COLO 205 colon
SF-295 CNS = test system: SF-295 CNS
SNB-75 CNS = test system: SNB-75 CNS

CC[C@H](C)[C@H](NC(=O)c1ccccn1)C(=O)N(C)[C@H](C[C@@H](OC(C)=O)c1nc(C(=O)N[C@@H](Cc2ccccc2)C[C@H](C)C(=O)OC)cs1)C(C)C
inactive: GI50 (NCI/ADR-RES ovarian) 25.3 µM | GI50 (SN12C renal) 30 µM | GI50 (K-562 leukemia) 17.5 µM | GI50 (RPMI-8226 leukemia) 6.98 µM | GI50 (HCT-15 colon) 21.7 µM | GI50 (MOLT-4 leukemia) 24.7 µM | GI50 (IGROV1 ovarian) 11.6 µM | GI50 (SK-MEL-5 melanoma) 10.7 µM | GI50 (TK-10 renal) 54.1 µM | GI50 (M14 melanoma) 9.25 µM | GI50 (PC-3 prostate) 23.6 µM | GI50 (BT-549 breast) 11.4 µM | GI50 (MDA-MB-231 breast) 15.7 µM | GI50 (OVCAR-8 ovarian) 33.3 µM | GI50 (A549 NSCLC) 48.9 µM | GI50 (SK-MEL-2 melanoma) 12.8 µM | GI50 (DU-145 prostate) 34.7 µM | GI50 (HT29 colon) 26.3 µM | GI50 (UO-31 renal) 18 µM | GI50 (SK-MEL-28 melanoma) 35.1 µM | GI50 (SNB-19 CNS) 33.8 µM | GI50 (UACC-257 melanoma) 36.8 µM | GI50 (OVCAR-5 ovarian) 27.9 µM | GI50 (HCC-2998 colon) 19.1 µM | GI50 (RXF 393 renal) 7.56 µM | GI50 (CCRF-CEM leukemia) 21.5 µM | GI50 (SF-268 CNS) 29 µM | GI50 (SK-OV-3 ovarian) 33.4 µM | GI50 (NCI-H522 lung) 8.93 µM | GI50 (HOP-92 NSCLC) 6.88 µM | GI50 (MALME-3M melanoma) 15.7 µM | GI50 (LOX IMVI melanoma) 22.3 µM | GI50 (SW-620 colon) 23.1 µM | GI50 (MDA-MB-435) 2.08 µM | GI50 (NCI-H226 lung) 45 µM | GI50 (HS 578T breast) 12.8 µM | GI50 (HOP-62 NSCLC) 26.1 µM | GI50 (HL-60(TB) leukemia) 7.89 µM | GI50 (EKVX NSCLC) 35.3 µM | GI50 (KM12 colon) 8.08 µM | GI50 (MCF7 breast) 4.92 µM | GI50 (ACHN renal) 27.3 µM | GI50 (786-0 renal) 16.1 µM | GI50 (OVCAR-4 ovarian) 31.1 µM | GI50 (U251 CNS) 28.5 µM | GI50 (CAKI-1 renal) 30.6 µM | GI50 (NCI-H460 lung) 18.6 µM | GI50 (SF-539 CNS) 17.1 µM | GI50 (UACC-62 melanoma) 4.56 µM | GI50 (T-47D breast) 43 µM | GI50 (HCT-116 colon) 11.2 µM | GI50 (OVCAR-3 ovarian) 10.9 µM | GI50 (SR leukemia) 3.88 µM | GI50 (NCI-H23 lung) 24.6 µM | GI50 (COLO 205 colon) 16.8 µM | GI50 (SF-295 CNS) 21.7 µM | GI50 (SNB-75 CNS) 5.73 µM
38.9 µM: TGI (NCI-H522 lung)
5.64 µM: TGI (MDA-MB-435)
54 µM: TGI (HL-60(TB) leukemia)
50.3 µM: TGI (HCT-116 colon)
60.4 µM: TGI (RXF 393 renal)
45.7 µM: TGI (HS 578T breast)
48.2 µM: TGI (MDA-MB-231 breast)
57 µM: TGI (NCI-H460 lung)
59.7 µM: TGI (786-0 renal)
98 µM: TGI (SNB-75 CNS)
42 µM: TGI (COLO 205 colon)
> 100 µM: TGI (NCI/ADR-RES ovarian) | TGI (SN12C renal) | TGI (K-562 leukemia) | TGI (RPMI-8226 leukemia) | TGI (HCT-15 colon) | TGI (IGROV1 ovarian) | TGI (TK-10 renal) | TGI (PC-3 prostate) | TGI (OVCAR-8 ovarian) | TGI (A549 NSCLC) | TGI (SK-MEL-2 melanoma) | TGI (DU-145 prostate) | TGI (HT29 colon) | TGI (UO-31 renal) | TGI (SK-MEL-28 melanoma) | TGI (SNB-19 CNS) | TGI (UACC-257 melanoma) | TGI (OVCAR-5 ovarian) | TGI (HCC-2998 colon) | TGI (CCRF-CEM leukemia) | TGI (SF-268 CNS) | TGI (SK-OV-3 ovarian) | TGI (MALME-3M melanoma) | TGI (LOX IMVI melanoma) | TGI (SW-620 colon) | TGI (NCI-H226 lung) | TGI (HOP-62 NSCLC) | TGI (EKVX NSCLC) | TGI (KM12 colon) | TGI (MCF7 breast) | TGI (ACHN renal) | TGI (OVCAR-4 ovarian) | TGI (U251 CNS) | TGI (CAKI-1 renal) | TGI (UACC-62 melanoma) | TGI (T-47D breast) | TGI (NCI-H23 lung) | TGI (SF-295 CNS)
40.7 µM: TGI (OVCAR-3 ovarian)
80.9 µM: TGI (HOP-92 NSCLC)
50.8 µM: TGI (SF-539 CNS)
38.4 µM: TGI (M14 melanoma)
42.5 µM: TGI (SK-MEL-5 melanoma) | TGI (BT-549 breast)
90.2 µM: TGI (MOLT-4 leukemia)
81 µM: TGI (SR leukemia)
